Here are results for one compound from ChEMBL document CHEMBL1156950, “Synthesis and biological evaluation of 4-anilinoquinolines as potent inhibitors of epidermal growth factor receptor” (J Med Chem, 2010).

The target in assay [1] is Serine/threonine-protein kinase PAK 2 (Homo sapiens) (UniProt Q13177). The experiment in a line: Inhibition of PAK2 at 10 uM assessed as residual activity by [33P]ATP radioactive filter binding assay relative to control.
Assay [2] deals with Serine/threonine-protein kinase 26 (Homo sapiens) (UniProt Q9P289). The experiment in a line: Inhibition of MST4 at 10 uM assessed as residual activity by [33P]ATP radioactive filter binding assay relative to control.
In assay [3] the target is Mitogen-activated protein kinase 1 (Homo sapiens) (UniProt P28482). The experiment in a line: Inhibition of ERK2 at 10 uM assessed as residual activity by [33P]ATP radioactive filter binding assay relative to control.
The target in assay [4] is Epidermal growth factor receptor (Homo sapiens, UniProt P00533). The experiment in a line: Inhibition of wild type EGFR by HTRF assay. On the technique in general: Time-resolved FRET reads energy transfer from a long-lived donor to a nearby acceptor.
Assay [5] concerns the target Epidermal growth factor receptor (Homo sapiens, UniProt P00533, L858R). Kind of assay: Inhibition of EGFR Leu858Arg mutant by HTRF assay. It is filed as protein assay.
The target in assay [6] is Epidermal growth factor receptor (Homo sapiens, UniProt P00533, L858R/T790M). Kind of assay: Inhibition of EGFR Leu858Arg and Thr790Met mutant by HTRF assay. Type of assay: protein assay.
For assay [7], the system named is Lymphokine-activated killer T-cell-originated protein kinase. Kind of assay: Inhibition of PBK1 at 10 uM assessed as residual activity by [33P]ATP radioactive filter binding assay relative to control.

Mitogen-activated protein kinase 1 (Homo sapiens), sequence (P28482 whole entry): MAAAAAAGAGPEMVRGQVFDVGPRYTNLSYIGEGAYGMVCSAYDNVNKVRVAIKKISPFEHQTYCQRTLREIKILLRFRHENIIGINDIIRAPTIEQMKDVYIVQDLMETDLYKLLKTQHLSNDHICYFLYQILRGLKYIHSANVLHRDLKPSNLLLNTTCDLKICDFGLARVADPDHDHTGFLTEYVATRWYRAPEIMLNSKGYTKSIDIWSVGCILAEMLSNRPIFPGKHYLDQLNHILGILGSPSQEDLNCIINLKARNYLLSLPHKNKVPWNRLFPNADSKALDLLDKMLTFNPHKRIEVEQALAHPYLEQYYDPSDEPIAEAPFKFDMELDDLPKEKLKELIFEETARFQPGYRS
Epidermal growth factor receptor (Homo sapiens, UniProt P00533), sequence (P00533 whole entry): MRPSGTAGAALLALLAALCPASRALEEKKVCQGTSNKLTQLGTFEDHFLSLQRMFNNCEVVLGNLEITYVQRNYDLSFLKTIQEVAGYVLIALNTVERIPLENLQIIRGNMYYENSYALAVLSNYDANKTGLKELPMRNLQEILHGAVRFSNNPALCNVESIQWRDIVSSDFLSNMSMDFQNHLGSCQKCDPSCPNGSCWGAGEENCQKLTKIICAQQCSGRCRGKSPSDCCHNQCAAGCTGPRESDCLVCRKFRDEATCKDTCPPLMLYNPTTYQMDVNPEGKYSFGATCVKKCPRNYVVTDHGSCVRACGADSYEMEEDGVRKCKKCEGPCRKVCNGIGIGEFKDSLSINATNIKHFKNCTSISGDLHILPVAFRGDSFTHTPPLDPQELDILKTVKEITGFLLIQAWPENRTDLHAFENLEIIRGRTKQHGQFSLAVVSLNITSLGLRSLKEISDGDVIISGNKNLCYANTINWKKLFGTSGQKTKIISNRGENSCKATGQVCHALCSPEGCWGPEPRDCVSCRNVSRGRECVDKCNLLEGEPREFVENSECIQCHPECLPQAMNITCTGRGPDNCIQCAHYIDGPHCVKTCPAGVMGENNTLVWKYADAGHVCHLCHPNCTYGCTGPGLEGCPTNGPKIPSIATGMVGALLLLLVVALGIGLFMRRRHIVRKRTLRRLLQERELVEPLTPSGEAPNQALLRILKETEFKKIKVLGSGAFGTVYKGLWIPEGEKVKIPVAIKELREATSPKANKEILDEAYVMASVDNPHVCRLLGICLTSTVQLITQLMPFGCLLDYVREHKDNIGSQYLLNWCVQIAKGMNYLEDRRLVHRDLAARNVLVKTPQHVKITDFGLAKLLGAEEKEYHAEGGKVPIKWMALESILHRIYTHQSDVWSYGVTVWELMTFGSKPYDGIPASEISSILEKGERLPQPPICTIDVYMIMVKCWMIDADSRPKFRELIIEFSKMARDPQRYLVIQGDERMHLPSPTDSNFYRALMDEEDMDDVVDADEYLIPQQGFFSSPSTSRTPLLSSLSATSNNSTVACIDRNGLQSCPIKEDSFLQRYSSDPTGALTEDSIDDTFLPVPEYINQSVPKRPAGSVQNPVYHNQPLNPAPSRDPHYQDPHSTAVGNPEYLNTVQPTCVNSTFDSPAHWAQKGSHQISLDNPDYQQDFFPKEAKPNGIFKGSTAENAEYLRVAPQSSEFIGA
Serine/threonine-protein kinase 26 (Homo sapiens), sequence (Q9P289 2-416 limits assumed): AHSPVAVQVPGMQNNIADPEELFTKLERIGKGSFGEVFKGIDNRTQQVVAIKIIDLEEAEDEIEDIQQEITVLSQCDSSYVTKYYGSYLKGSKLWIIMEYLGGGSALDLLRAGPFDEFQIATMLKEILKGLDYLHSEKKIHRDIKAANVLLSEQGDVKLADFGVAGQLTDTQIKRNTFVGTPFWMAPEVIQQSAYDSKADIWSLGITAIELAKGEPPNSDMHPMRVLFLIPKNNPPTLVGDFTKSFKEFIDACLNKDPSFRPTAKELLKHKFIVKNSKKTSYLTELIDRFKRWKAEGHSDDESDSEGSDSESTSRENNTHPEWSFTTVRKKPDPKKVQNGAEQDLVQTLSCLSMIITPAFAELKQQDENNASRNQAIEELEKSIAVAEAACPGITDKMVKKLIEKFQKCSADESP
Serine/threonine-protein kinase PAK 2 (Homo sapiens), sequence (Q13177 whole entry): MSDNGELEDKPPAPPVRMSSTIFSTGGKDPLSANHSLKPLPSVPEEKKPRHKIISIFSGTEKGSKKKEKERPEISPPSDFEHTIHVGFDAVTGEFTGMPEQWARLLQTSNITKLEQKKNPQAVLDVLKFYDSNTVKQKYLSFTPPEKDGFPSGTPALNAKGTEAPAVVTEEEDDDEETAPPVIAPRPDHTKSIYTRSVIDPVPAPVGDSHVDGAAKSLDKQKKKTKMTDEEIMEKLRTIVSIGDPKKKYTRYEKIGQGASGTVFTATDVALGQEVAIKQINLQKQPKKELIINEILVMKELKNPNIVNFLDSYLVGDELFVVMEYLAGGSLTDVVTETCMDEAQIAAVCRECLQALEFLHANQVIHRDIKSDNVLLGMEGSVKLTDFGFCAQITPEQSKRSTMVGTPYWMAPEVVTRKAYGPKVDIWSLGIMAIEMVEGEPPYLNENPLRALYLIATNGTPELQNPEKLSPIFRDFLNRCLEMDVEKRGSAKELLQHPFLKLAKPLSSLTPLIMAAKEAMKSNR
Epidermal growth factor receptor (Homo sapiens, UniProt P00533, L858R/T790M), sequence (P00533 25-1210 T790M/L858R limits assumed): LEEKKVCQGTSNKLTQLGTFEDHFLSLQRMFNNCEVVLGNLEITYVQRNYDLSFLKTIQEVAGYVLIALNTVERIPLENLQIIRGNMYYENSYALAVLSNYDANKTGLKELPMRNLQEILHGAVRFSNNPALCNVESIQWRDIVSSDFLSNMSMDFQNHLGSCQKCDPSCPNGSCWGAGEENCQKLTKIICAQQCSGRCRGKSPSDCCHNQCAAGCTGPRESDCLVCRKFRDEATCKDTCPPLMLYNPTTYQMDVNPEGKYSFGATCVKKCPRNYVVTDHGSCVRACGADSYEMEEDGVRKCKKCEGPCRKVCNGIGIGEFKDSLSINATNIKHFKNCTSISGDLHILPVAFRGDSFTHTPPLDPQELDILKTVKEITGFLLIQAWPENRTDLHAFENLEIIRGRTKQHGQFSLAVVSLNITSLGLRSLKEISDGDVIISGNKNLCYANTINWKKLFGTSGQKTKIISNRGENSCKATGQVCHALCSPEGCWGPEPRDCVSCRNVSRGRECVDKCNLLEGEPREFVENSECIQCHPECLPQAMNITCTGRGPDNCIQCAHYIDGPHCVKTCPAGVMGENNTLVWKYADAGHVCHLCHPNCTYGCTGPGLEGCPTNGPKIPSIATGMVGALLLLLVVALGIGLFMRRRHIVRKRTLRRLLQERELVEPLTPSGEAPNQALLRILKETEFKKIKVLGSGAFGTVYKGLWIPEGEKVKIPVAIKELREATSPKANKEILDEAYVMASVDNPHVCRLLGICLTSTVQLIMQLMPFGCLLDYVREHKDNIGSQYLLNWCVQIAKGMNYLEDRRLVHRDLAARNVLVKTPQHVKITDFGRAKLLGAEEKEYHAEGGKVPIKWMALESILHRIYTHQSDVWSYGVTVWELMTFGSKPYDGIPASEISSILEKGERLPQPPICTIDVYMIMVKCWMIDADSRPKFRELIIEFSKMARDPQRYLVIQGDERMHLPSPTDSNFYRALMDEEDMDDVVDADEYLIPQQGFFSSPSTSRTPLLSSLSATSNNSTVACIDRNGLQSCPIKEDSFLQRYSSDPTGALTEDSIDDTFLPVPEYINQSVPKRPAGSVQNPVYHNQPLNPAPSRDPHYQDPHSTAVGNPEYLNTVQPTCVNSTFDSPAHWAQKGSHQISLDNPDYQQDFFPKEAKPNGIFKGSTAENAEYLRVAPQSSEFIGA
Epidermal growth factor receptor (Homo sapiens, UniProt P00533, L858R), sequence (P00533 25-1210 L858R limits assumed): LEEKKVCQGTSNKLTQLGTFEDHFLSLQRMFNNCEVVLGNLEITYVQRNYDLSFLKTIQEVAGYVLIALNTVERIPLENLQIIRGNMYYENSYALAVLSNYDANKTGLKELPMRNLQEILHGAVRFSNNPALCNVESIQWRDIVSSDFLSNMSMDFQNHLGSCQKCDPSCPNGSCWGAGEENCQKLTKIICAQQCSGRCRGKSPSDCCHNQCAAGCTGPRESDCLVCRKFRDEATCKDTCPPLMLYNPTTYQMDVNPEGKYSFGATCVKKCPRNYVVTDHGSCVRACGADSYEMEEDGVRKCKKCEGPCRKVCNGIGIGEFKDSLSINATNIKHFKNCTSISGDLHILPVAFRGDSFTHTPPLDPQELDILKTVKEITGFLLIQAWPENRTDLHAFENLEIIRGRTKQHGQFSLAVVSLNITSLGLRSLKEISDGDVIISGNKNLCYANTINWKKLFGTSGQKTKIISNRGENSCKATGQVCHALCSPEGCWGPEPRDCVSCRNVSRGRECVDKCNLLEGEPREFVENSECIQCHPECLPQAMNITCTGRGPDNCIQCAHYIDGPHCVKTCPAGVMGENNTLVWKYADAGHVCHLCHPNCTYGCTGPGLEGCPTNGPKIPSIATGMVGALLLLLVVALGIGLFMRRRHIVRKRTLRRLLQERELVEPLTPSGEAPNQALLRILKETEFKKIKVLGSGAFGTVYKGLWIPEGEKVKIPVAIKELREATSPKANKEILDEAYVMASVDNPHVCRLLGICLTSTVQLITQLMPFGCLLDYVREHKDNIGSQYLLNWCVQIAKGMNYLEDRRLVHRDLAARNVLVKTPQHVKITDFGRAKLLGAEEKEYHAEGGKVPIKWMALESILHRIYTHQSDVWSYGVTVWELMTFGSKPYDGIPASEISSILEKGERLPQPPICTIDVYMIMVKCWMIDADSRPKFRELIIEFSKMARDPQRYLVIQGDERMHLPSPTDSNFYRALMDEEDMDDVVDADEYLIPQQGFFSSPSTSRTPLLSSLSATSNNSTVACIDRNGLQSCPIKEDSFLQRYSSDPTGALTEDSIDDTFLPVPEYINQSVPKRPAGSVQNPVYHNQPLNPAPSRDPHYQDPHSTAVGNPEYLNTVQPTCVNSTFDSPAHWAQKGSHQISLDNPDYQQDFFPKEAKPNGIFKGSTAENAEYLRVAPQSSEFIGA

In general, IC50 refers to the point on the concentration scale where inhibition reaches its midpoint. A higher IC50 goes with lower potency. On to `CN(C)CCCC(=O)Nc1ccc2nccc(Nc3cccc(Br)c3)c2c1`, for which the Activity in assay [1] is 79%; in assay [2] it was 80%; in assay [3] it was 88%; in assay [7], 84%. Further, the IC50 was 1.7 nM in assay [4], 0.5 nM in assay [5] and 130 nM in assay [6].
